Measurements reported in patent US8124760B2, “Pyridyl-triazolopyrimidine derivative or its salt, pesticide containing it and its production process” (Ishihara Sangyo Kaisha, Ltd., priority 2007, dated 2012).
Where two headings read alike, the source gives them in different places.

Experiments:
Assay type in all cases: in vivo
[1] = test system: Brown Planthopper (Nilaparvata lugens); test: Test on controlling effects against brown planthopper (rice seedling dip)
Excerpt: Test on Controlling Effects Against Brown Planthopper (Nilaparvata lugens)
Rice seedling was dipped for about 10 seconds in an insecticidal solution prepared to bring the concentration of the compound of the present invention to 200 ppm and then dried in air, its root was wrapped with a wet absorbent cotton, and the seedling was put into a test tube. Then, 10 second-third instar nymphs of Brown Planthopper were released therein, and the test tube was covered with a gauze and left in a constant temperature chamber at 25° C. with lightening. On the 5th day after the release, dead nymphs were counted, and the mortality was calculated by the following equation.

[2] = test system: Green Peach Aphid (Myzus persicae); test: Test on controlling effects against green peach aphid (leaf dip); conditions: foliar, 120 h, Japanese radish leaf dipped about 10 seconds, first instar nymphs, 5 days after the treatment, 25° C.
Excerpt: Test on Controlling Effects Against Green Peach Aphid (Myzus persicae)
A Japanese radish leaf was inserted in a test tube in which water was put, and about 20 first instar nymphs of green peach aphid were released on the leaf. On the next day, the number of nymphs parasitic on the leaf was counted, and then the leaf was dipped for about 10 seconds in an insecticidal solution prepared to bring the concentration of the compound of the present invention to 200 ppm, dried in air and left in a constant temperature chamber at 25° C. with lightening. Dead nymphs were counted 5 days after the treatment, and the mortality was calculated by the following equation. The insects dropped from the leaf or presented toxic symptom were counted as dead insects. […] Mortality (%)=(1−(number of survived insects/number of treated insects))×100

[3] = test system: Silverleaf Whitefly (Bemisia Argentifolii); test: Test on controlling effects against silverleaf whitefly (cucumber seedling spray); conditions: 168 h, hand spray to cucumber seedling, first-second instar nymphs, 7 days after the treatment, 25° C., read-out: protective value
Method: Test on Controlling Effects Against Silverleaf Whitefly (Bemisia Argentifolii) An insecticidal solution prepared to bring the concentration of the compound of the present invention to 200 ppm was applied by a hand spray to cucumber seedling planted in a pot on which first-second instar nymphs of silverleaf whitefly were parasitic, and dried in air. Thereafter, the cucumber seedling was left in a constant temperature chamber at 25° C. with lightening. The number of old instar nymphs was counted 7 days after the treatment, and the protective value (%) was obtained by the following equation. […] Protective value (%)=(1−((Ta×Cb)/(Tb×Ca)))×100 Ta: The number of old instar nymphs after the treatment at the treated cucumber seedling Tb: The number of first-second instar nymphs before the treatment at the treated cucumber seedling Ca: The number of old instar nymphs after the treatment at the untreated cucumber seedling Cb: the number of first-second instar nymphs before the treatment at the untreated cucumber seedling

[4] = 200 ppm, rice seedling dipped about 10 seconds, second-third instar nymphs, 5th day after the release, 25° C., read-out: mortality

| SMILES | mortality at 200 ppm [1, 4] | mortality at 200 ppm [2] | pest or weed control at 200 ppm [3] | mortality at 200 ppm [1] |
| --- | --- | --- | --- | --- |
| FC(F)(F)c1cnc(-c2cc(C3CCCC3)nc3ncnn23)c(Cl)c1 [compound 107] | ≥ 90% | – | – | – |
| Cc1cc(-c2nc(Cl)c(C(F)(F)F)cc2Cl)n2ncnc2n1 [compound 68] | ≥ 90% | ≥ 90% | – | – |
| Cc1cc(-c2ncc(C(F)(F)F)cc2C#N)n2ncnc2n1 [compound 43] | ≥ 90% | ≥ 90% | – | – |
| Fc1cc(C(F)(F)F)cnc1-c1ccnc2ncnn12 [compound 5] | – | – | ≥ 80% | – |
| N#Cc1cc(-c2ncc(C(F)(F)F)cc2Cl)n2ncnc2n1 [compound 70] | ≥ 90% | – | – | – |
| Cc1cc(-c2ncc(C(F)(F)F)cc2C)n2ncnc2n1 [compound 44] | ≥ 90% | ≥ 90% | ≥ 80% | – |
| Cc1cc(-c2ncc(C(F)(F)F)cc2Br)n2ncnc2n1 [compound 15] | ≥ 90% | ≥ 90% | ≥ 80% | – |
| Cc1cc(-c2ccc(C(F)(F)F)cn2)n2ncnc2n1 [compound 18] | – | ≥ 90% | ≥ 80% | – |
| Cc1cc(-c2cc(C(F)(F)F)cc(C(F)(F)F)n2)n2ncnc2n1 [compound 51] | – | ≥ 90% | – | – |
| CCCc1cc(-c2ncc(C(F)(F)F)cc2Cl)n2ncnc2n1 [compound 17] | ≥ 90% | ≥ 90% | ≥ 80% | – |
| FC(F)(F)c1cnc(-c2cc(C3CC3)nc3ncnn23)c(Br)c1 [compound 94] | ≥ 90% | ≥ 90% | ≥ 80% | – |
| FC(F)(F)c1cnc(-c2ccnc3ncnn23)c(Br)c1 [compound No. 4, 7-(3-bromo-5-(trifluoromethyl)pyridin-2-yl)-[1,2,4]triazolo[1,5-a]pyrimidine] | ≥ 90% | ≥ 90% | ≥ 80% | – |
| Cc1cc(-c2ncc(Cl)cc2C(F)(F)F)n2ncnc2n1 [compound 57] | ≥ 90% | – | – | – |
| FC(F)(F)c1cnc(-c2cc(C3CC3)nc3ncnn23)c(Cl)c1 [compound No. 82, 7-(3-chloro-5-(trifluoromethyl)pyridin-2-yl)-5-cyclopropyl-[1,2,4]triazolo[1,5-a]pyrimidine] | ≥ 90% | ≥ 90% | ≥ 80% | – |
| CC(C)(C)c1cc(-c2ncc(C(F)(F)F)cc2Cl)n2ncnc2n1 [compound 89] | ≥ 90% | – | – | – |
| CC1(c2cc(-c3ncc(C(F)(F)F)cc3Cl)n3ncnc3n2)CC1 [compound 98] | ≥ 90% | – | – | – |

| SMILES | mortality at 200 ppm [1, 4] | mortality at 200 ppm [2] | pest or weed control at 200 ppm [3] | mortality at 200 ppm [1] |
| --- | --- | --- | --- | --- |
| CCc1cc(C(F)(F)F)cnc1-c1cc(C)nc2ncnn12 [compound 79] | ≥ 90% | ≥ 90% | – | – |
| FC(F)(F)c1cnc(-c2cc(C3CCC3)nc3ncnn23)c(Cl)c1 [compound 99] | ≥ 90% | – | – | – |
| Cc1cc(-c2ncc(C(F)(F)F)cc2Cl)n2ncnc2n1 [compound No. 19, 7-(3-chloro-5-(trifluoromethyl)pyridin-2-yl)-5-methyl-[1,2,4]triazolo[1,5-a]pyrimidine] | ≥ 90% | ≥ 90% | ≥ 80% | – |
| FC(F)(F)c1cnc(-c2cc(-c3ccco3)nc3ncnn23)c(Cl)c1 [compound 91] | – | – | – | ≥ 90% |
| O=[N+]([O-])c1cc(C(F)(F)F)cnc1-c1ccnc2ncnn12 [compound 12] | ≥ 90% | – | ≥ 80% | – |
| Cc1cc(-c2ncc(C(F)(F)F)cc2-c2ccccc2)n2ncnc2n1 [compound 52] | ≥ 90% | – | – | – |
| Cc1cc(-c2nc(Cl)c(C(F)(F)F)cc2F)n2ncnc2n1 [compound 105] | ≥ 90% | – | – | – |
| FC(F)(F)c1cnc(-c2cc(C(F)(F)F)nc3ncnn23)c(Cl)c1 [compound No. 20, 7-(3-chloro-5-(trifluoromethyl)pyridin-2-yl)5-(trifluoromethyl)-[1,2,4]triazolo[1,5-a]pyrimidine] | ≥ 90% | ≥ 90% | ≥ 80% | – |
| CC(C)c1cc(-c2ncc(C(F)(F)F)cc2Br)n2ncnc2n1 [compound No. 95, 7-(3-bromo-5-(trifluoromethyl)pyridin-2-yl)-5-isopropyl-[1,2,4]triazolo[1,5-a]pyrimidine] | ≥ 90% | ≥ 90% | – | – |
| Cc1cc(-c2ncc(C(F)(F)F)cc2[N+](=O)[O-])n2ncnc2n1 [compound 78] | – | ≥ 90% | – | – |
| CCc1cc(-c2ncc(C(F)(F)F)cc2Cl)n2ncnc2n1 [compound No. 16, 7-(3-chloro-5-(trifluoromethyl)pyridin-2-yl)-5-ethyl-[1,2,4]triazolo[1,5-a]pyrimidine] | ≥ 90% | ≥ 90% | ≥ 80% | – |
| CCCCc1cc(-c2ncc(C(F)(F)F)cc2Cl)n2ncnc2n1 [compound 83] | ≥ 90% | – | – | – |
| Cc1cc(-c2ncc(C(F)(F)F)cc2I)n2ncnc2n1 [compound 41] | ≥ 90% | ≥ 90% | – | – |
| N#Cc1cc(C(F)(F)F)cnc1-c1ccnc2ncnn12 [compound 14] | – | – | ≥ 80% | – |
| CC(C)c1cc(-c2ncc(C(F)(F)F)cc2Cl)n2ncnc2n1 [compound 80] | ≥ 90% | ≥ 90% | ≥ 80% | – |
